{
  "source": "patent US20220071952A1",
  "about": "“METHODS OF TREATING AND PREVENTING HEPATOTOXICITY” (Natreon, Inc., priority 2020, published 2022)",
  "key": {"[1]": {"system": "alcohol-induced hepatotoxicity in mice", "experiment": "Synergistic hepatoprotective activity of DBPs against alcohol-induced hepatotoxicity (Example IV)", "settings": "for ACP / ALP / ALT / AST / Total Protein: alcohol 5 g/kg, Ursocol 250 mg/kg b.w., mean ± SEM, n=4", "description": "Hepatotoxicity was induced by oral administration of alcohol (ethanol: 5 g/kg) from stock 400 mg/ml twice daily for 15 days.\n3-OH-DBP and 3,8-(OH)2-DBP were each separately suspended in 0.3% CMC and administered at a dose of 10 mg/kg body weight per orally for 15 days. During the 15 days treatment, body weight, food intake, and water intake were monitored at regular intervals. Following 15 days of treatment physical parameters (relative organ weight) and biochemical parameters (plasma total protein content, ALT, AST, ALP, and ACP) were studied.\n3-OH-DBP (2 mg/kg body weight, 10 mg/kg body weight);\n3,8-(OH)2-DBP (10 mg/kg body weight, 50 mg/kg body weight); and"}, "[2]": {"system": "CCl4-induced hepatotoxicity in mice", "experiment": "Synergistic hepatoprotective activity of DBPs against CCl4-induced hepatotoxicity (Example IV)", "settings": "CCl4 1 ml/kg, Ursocol 250 mg/kg b.w., mean ± SEM, n=4"}},
  "data": [
    {"compound": "C[C@H](CCC(=O)O)[C@H]1CC[C@H]2[C@@H]3[C@@H](O)C[C@@H]4C[C@H](O)CC[C@]4(C)[C@H]3CC[C@]12C", "note": "[Ursocol, ursodeoxycholic acid, reference compound]", "values": [
      {"measurement": "ACP", "setting": "[1]; female mice", "value": "2.4 ± 0.47", "unit": "U/L"},
      {"measurement": "ALP", "setting": "[1]; female mice", "value": "49 ± 6.5", "unit": "IU/L"},
      {"measurement": "ALT", "setting": "[1]; female mice", "value": "26.63 ± 2.85", "unit": "IU/L"},
      {"measurement": "AST", "setting": "[1]; female mice", "value": "25.39 ± 4.08", "unit": "IU/L"},
      {"measurement": "Total Protein", "setting": "[1]; female mice", "value": "5.97 ± 0.53", "unit": "g/dL"},
      {"measurement": "ACP", "setting": "[1]; male mice", "value": "3.19 ± 0.36", "unit": "U/L"},
      {"measurement": "ALP", "setting": "[1]; male mice", "value": "86.1 ± 3.73", "unit": "IU/L"},
      {"measurement": "ALT", "setting": "[1]; male mice", "value": "26.6 ± 1.94 ^ IU/L"},
      {"measurement": "AST", "setting": "[1]; male mice", "value": "24.3 ± 3.84", "unit": "IU/L"},
      {"measurement": "Total Protein", "setting": "[1]; male mice", "value": "8.83 ± 0.16", "unit": "g/dL"},
      {"measurement": "Relative liver weight", "setting": "[1]; male mice, alcohol study of Example IV", "value": "significantly increased"},
      {"measurement": "ACP", "setting": "[2]; female mice", "value": "29 ± 3.3", "unit": "U/L"},
      {"measurement": "ALP", "setting": "[2]; female mice", "value": "45 ± 6.9", "unit": "IU/L"},
      {"measurement": "ALT", "setting": "[2]; female mice", "value": "50 ± 5.6", "unit": "IU/L"},
      {"measurement": "AST", "setting": "[2]; female mice", "value": "49 ± 6.8", "unit": "IU/L"},
      {"measurement": "Total Protein", "setting": "[2]; female mice", "value": "6 ± 0.22", "unit": "g/dL"},
      {"measurement": "ACP", "setting": "[2]; male mice", "value": "22 ± 4.4 ^ U/L"},
      {"measurement": "ALP", "setting": "[2]; male mice", "value": "60 ± 9.9 ^ IU/L"},
      {"measurement": "ALT", "setting": "[2]; male mice", "value": "21 ± 2.6 ^ IU/L"},
      {"measurement": "AST", "setting": "[2]; male mice", "value": "18 ± 3.4 ^ IU/L"},
      {"measurement": "Total Protein", "setting": "[2]; male mice", "value": "6 ± 0.55", "unit": "g/dL"}
    ]}
  ]
}
